Test results as given in patent US20030054185A1, “Biocidal controlled-release formulations” (CREAVIS GESELLSCHAFT F. TECHN.U.INNOVATION MBH, priority 2001, published 2003).

Legend:
Pseudomonas aeruginosa = assay: test microbial suspension shaken with aqueous extract, number of microbes determined; type: cell-based; settings: contact time of 4 hours, starting number 10^7, 2 mL of 24 h water extract (37° C.) in 20 mL suspension (solvent control: 0.5 mL neat)
Procedure: The supernatant liquor is then filtered through a 0.2 micrometer pore filter. 2 mL of this solution are shaken with 20 mL of a test microbial suspension of Pseudomonas aeruginosa. […] The solvent is removed at 35° C. over a period of 48 hours in a drying cabinet, so that a polymer film remains on the base of the glass beaker. This film is extracted for 24 hours with 200 mL of water heated to 37° C. 2 mL of this solution are shaken with 20 mL of a test microbial suspension of Pseudomonas aeruginosa. […] Over a period of 14 days, the film is extracted as described above, each time for 24 hours, with 200 mL of water heated to 37° C., and the water is then subjected to microbiological testing. All of the determinations show a fall of from 4 to 5 logarithmic levels in the number of microbes. […] The solvent is removed over a period of 48 hours at 35° C. in a drying cabinet, so that a polymer film remains on the base of the glass beaker. The film is then dried for 24 hours at 5 mbar at 50° C. in a vacuum drying cabinet. This film is extracted for 24 hours with 200 mL of water heated to 37° C. 2 mL of this solution are shaken with 20 mL of a test microbial suspension of Pseudomonas aeruginosa. […] The solvent is removed over a period of 48 hours at 35° C. in a drying cabinet so that a polymer film remains on the base of the glass beaker. […]

Staphylococcus aureus = assay: as above; type: cell-based; settings: contact time of 4 hours, starting number 10^7, 2 mL of 24 h water extract (37° C.) in 20 mL suspension (solvent control: 0.5 mL neat)
Procedure: 2 mL of this solution are shaken with 20 mL of a test microbial suspension of Staphylococcus aureus. After a contact time of 4 hours, 1 mL of the test microbial suspension is removed, and the number of microbes in the test mixture is determined.
This film is extracted for 24 hours with 200 mL of water heated to 37° C. 2 mL of this solution are shaken with 20 mL of a test microbial suspension of Staphylococcus aureus. After a contact time of 4 hours, 1 mL of the test microbial suspension is removed, and the number of microbes in the test mixture is determined. […] Over a period of 14 days, the film is extracted as described above, each time for 24 hours, with 200 mL of water heated to 37° C., and the water is then subjected to microbiological testing.
This film is extracted for 24 hours with 200 mL of water heated to 37° C. 2 mL of this solution are shaken with 20 mL of a test microbial suspension of Staphylococcus aureus. After a contact time of 4 hours, 1 mL of the test microbial suspension is removed, and the number of microbes in the test mixture is determined.

Compound | number of microbes in the test mixture (Pseudomonas aeruginosa) | number of microbes in the test mixture (Staphylococcus aureus)
C1CCCCC1 [cyclohexane] | 10^7 microbes per mL | 
CCO [ethanol] |  | 10^7 microbes per mL
